One experiment has as its system hog renin. To be noted: after the injection of hog renin into nephrectomized rats; Gross et al, Science, 175, 656 (1971); cited from earlier work.
Another experiment relates to pepsin. The note with it: Umezawa et al, J. Antibiot. (Tokyo), 23, 259-262 (1970); cited from earlier work.
For another experiment, the system named is cathepsin D. To be noted: Umezawa et al, J. Antibiot. (Tokyo), 23, 259-262 (1970); cited from earlier work.
For another experiment, the system named is renin. The note with it: Umezawa et al, J. Antibiot. (Tokyo), 23, 259-262 (1970); cited from earlier work.
The next experiment has as its target T1, human renin (Homo sapiens, UniProt P00797).
T1 construct: purchased National Institute for Biological Standards, London
T1 sequence (P00797 67-406): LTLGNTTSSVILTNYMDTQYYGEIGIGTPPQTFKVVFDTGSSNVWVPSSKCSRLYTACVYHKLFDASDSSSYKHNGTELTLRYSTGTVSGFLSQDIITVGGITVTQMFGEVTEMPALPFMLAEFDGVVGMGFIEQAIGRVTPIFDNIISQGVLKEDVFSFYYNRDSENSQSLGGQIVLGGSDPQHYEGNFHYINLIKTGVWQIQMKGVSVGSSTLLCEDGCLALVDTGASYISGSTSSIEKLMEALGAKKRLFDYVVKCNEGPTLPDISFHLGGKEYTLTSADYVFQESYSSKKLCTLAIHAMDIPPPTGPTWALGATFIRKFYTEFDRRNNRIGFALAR
Kind of experiment: Human Renin Inhibition in vitro. The format is biochemical. The note with it: pH 7.4, 37° C., two hours, human plasma, angiotensin I by radioimmunoassay. Here is the method:
Compounds of Formula I were evaluated as inhibitors of human renin in an vitro assay, as follows: This human renin inhibition test has been previously described in detail [Papaioannou et al., Clinical and Experimental Hypertension, A7 (9), 1243-1257 (1985)]. Human renin was obtained from the National Institute for Biological Standards, London. An incubation mixture was prepared containing the following components: in a total volume of 0.25 mL: 100 mM Tris-acetate buffer at pH 7.4, 25×10^-6 Goldblatt units of renin, 0.05 mL of plasma from human volunteers taking oral contraceptives, 6.0 mM Na-EDTA, 2.4 mM phenylmethyl sulfonyl fluoride, 1.5 mM 8-hydroxyquinoline, 0.4 mg/mL bovine serum albumin (BSA), and 0.024 mg/mL neomycin sulfate. This mixture was incubated for two hours at 37° C. in the presence or absence of renin inhibitors. The produced angiotensin I was determined by radioimmunoassay (New England Nuclear kit). Test compounds to be assayed were dissolved in DMSO and diluted with 100 mM Tris-acetate buffer at pH 7.4 containing 0.5% BSA to the appropriate concentration. The final concentration of organic solvent in the reaction mixture was less than 1%. Control incubations at 37° C. were used to correct for effects of organic solvent on renin activity.

Non-standard residues stand in square brackets, D forms with d. Residues, ends and D or L forms follow the SMILES beside them. *: point of attachment. Sta = CC(C)C[C@H](N)[C@@H](O)CC(=O)O; Isovaleryl = CC(C)CC(=O)*

As to `CC(C)CC(=O)N[C@H](C(=O)N[C@H](C(=O)N[C@@H](CC(C)C)[C@@H](O)CC(=O)N[C@@H](C)C(=O)N[C@@H](CC(C)C)[C@@H](O)CC(=O)O)C(C)C)C(C)C` [pepstatin] (Isovaleryl-VV[Sta]A[Sta]-OH), the “blood pressure in vivo” value in the experiment with hog renin is recorded as “reduce blood pressure”. In addition, the inhibitor of pepsin result in the experiment with pepsin is “inhibitor”. The “inhibitor of cathepsin D” value in the experiment on cathepsin D is “inhibitor”. The inhibitor of renin result in the experiment on renin was “inhibitor”.
One may read the inhibition as the drop in the measured response relative to a control, in per cent. Low values mean little suppression, high ones strong suppression. Molecule `C#CC[C@H](NC(=O)CCS(=O)(=O)c1ccccc1)C(=O)N[C@@H](CC1CCCCC1)[C@@H](O)[C@@H](O)CC(C)C` [Example 3, N-[1S,1R*(cyclohexylmethyl)-2S*,3R*-dihydroxy-5-methylhexyl]-2R*-[[1-oxo-3-[phenylsulfonyl]propyl]amino]-4-pentynamide] came in with an inhibition at 0.1 µM at human renin (@ 100 nM) of 34%.
As usually defined, the IC50 is the midpoint of a concentration-inhibition curve. Read a low IC50 as higher potency. As to `C#CC[C@H](NC(=O)[C@H](Cc1ccccc1)CS(=O)(=O)C(C)(C)C)C(=O)N[C@@H](CC1CCCCC1)[C@@H](O)[C@@H](O)CC(C)C` [Example 2, N-[[1R*-[[1S,1R*(cyclohexylmethyl)-2S*,3R*-dihydroxy-5-methylhexyl]amino]carbonyl]-3-butynyl]-αR*-[[(1,1-dimethylethyl)sulfonyl]methyl]benzenepropanamide], at human renin, the IC50 was 0.17 nM.
The same measure, in the same setting: the figure for `C#CC[C@H](NC(=O)C(Cc1ccccc1)CS(=O)(=O)C(C)(C)C)C(=O)N[C@@H](CC1CCCCC1)[C@@H](O)[C@@H](O)CC(C)C` (stereo partly drawn) [Example 1, N-[[1R*-[[1S,1R*(cyclohexylmethyl)-2S*,3R*-dihydroxy-5-methylhexyl]amino]carbonyl]-3-butynyl]-α-[[(1,1-dimethylethyl)sulfonyl]methyl]benzenepropanamide] is 0.23 nM.

The values above are taken from patent US5314920A, “Ethynyl-alanine aryl/alkylsulfonyl-terminated amino-diol compounds for treatment of hypertension” (G. D. Searle & Co., priority 1992, dated 1994).
